Among the data in patent US20090253709A1 (NATIONAL DEFENSE MEDICAL CENTER, priority 2008, published 2009) are viability and activity values, retold here.

Read-outs that look alike come from different tables or passages of the source.

Data set [1] can be described thus: MTT assay in H1299 cells. The class given is cell-based. Conditions: human, H1299 cells (H1299/PhTERT-driven SEAP reporter system), H1299, read-out: MTT (Inhibition μM ± SD); for viability at 24 h, 1 µM: compound concentration 1 μM; for viability at 24 h, 10 µM: compound concentration 10 μM; for viability at 24 h, 100 µM: compound concentration 100 μM. The method, then: H1299 is a non-small cell lung cancer cell line with telomerase activity. The cell extract of H1299 cell lines can be used for selecting the telomerase activity inhibitors in vitro and the telomerase activity-inhibited substances in vivo. H1299 cell line was incubated with RPMI 1640 medium supplemented with 10% of fetal bovine serum (FBS). A total of 2×10^3 […] cells were seeded in the 96-well cell culture plate, and incubated with DMEM (GIBCO®)/glucose mixture and Medium 199 (GIBCO®)/10% FBS/1 mM sodium pyruvate (GIBCO®)/4 mM L-glutamine (GIBCO®) mixture at a ratio of 4:1 at 37° C. for 24 hours. […] After 48 hours of drug treatment, the cultured medium were collected for performing the analysis of SEAP activity. The cells were washed with 1×PBS once immediately, and the MTT assay was performed to compare the compounds with the relative toxicity or the influence to the proliferation and activity. Mitochondria is the place for cellular respiration, and there are many reductive reactions catalyzed by dehydrogenases. MTT is a water-soluble yellow compound, and the […] will be formed after reduction. This crystal can be dissolved in the organic solvent, and has high absorbance at the wavelength of 570 nm. The higher cellular activity or more cell numbers, the more generated crystal violets. Therefore, the cellular activity and cell number can be obtained by the MTT assay. MTT solution was prepared by dissolving MTT powder in PBS solution to achieve 5 mg/ml, filtrated and stored at 4° C. Lysis buffer contained 20% (w/v) of SDS in 50% of N,N-dimethylformamide (DMF, Riedel-deHaën). After the cells were incubated in the 96-well culture plate, the original medium was discarded, 100 μl of the fresh serum-free medium per well and 25 μl of MTT solution per well were added in respectively, and the cells were further incubated in the CO2 incubator at 37° C. for 4 hours. Then, 100 μl of lysis buffer per well was added in and incubated overnight in the CO2 incubator at 37° C. The absorbance at 570 nm was determined by the ELISA reader. The selection of telomerase inhibitors of the anthraquinone compounds provided in the present invention was performed by the […]-driven SEAP system. SEAP is the communication gene in this drug selection model. The SEAP inhibition was shown as follows. […] Subsequently, the linear slope of absorbance to the measuring time was calculated, and the variance of absorbance at 405 nm per minute was represented and compared with the SEAP-producing result of drug-untreated H1299 cells. In addition, the influence of the cell-treated drug solution to the cellular proliferation and the drug toxicity to the cells were considered, and the cellular growth was evaluated by the MTT assay. The drug-treated cells were analyzed by the SEAP assay and the data analysis of MTT assay at the same time. Both results were compared so as to delete the influence of cell number or the activity to SEAP, and the dose-dependent phenomenon could be anticipated in the range of drug concentration designed by the laboratory. […] Since the chemically-synthetic drugs have colors thereon, the SEAP value of drug-treatment without cells was also determined to be the background value which was deducted while treating with the drugs. The candidate drug for inhibiting telomerase on the hTERT gene expression level was evaluated and anticipated.

Data set [2] has as its system hTERT expression. Nature of the data set: SEAP assay, H1299/PhTERT-driven SEAP system. The class given is cell-based, human. Particulars: Homo sapiens. An excerpt:
The condition of the cells for selecting the telomerase inhibitor must be the cancer cells with telomerase activity. H1299 is a non-small cell lung cancer cell line with telomerase activity. The hTERT communication gene linked behind PhTERT which is located at the fifth chromosome of H1299 cell can be expressed; however, this expression is hard to detect. Therefore, the plasmid having the SEAP communication gene linked behind PhTERT was transfected into H1299 cells. Under the identical condition, after PhTERT was activated, the SEAP communication gene linked behind the plasmid was also activated. This gene could be detected by this analytic method while expressing.
If additionally added reagent can inhibit PhTERT, the linked SEAP communication gene will not be expressed, and the hTERT communication gene linked behind PhTERT at the fifth chromosome will not be expressed. […]
The cellular medium after the cellular incubation was transferred into the eppondorf tube, and the activity of endogeneous alkaline phosphatase was inactivated at 65° C. for 10 minutes. After centrification, the mixture was obtained by mixing 50 μl of the supernatant with the equal volume of the SEAP buffer. The mixture and the substrate (120 mM of p-nitrophenylphosphate) were preheated at 37° C. for 10 minutes respectively, and the mixture and the substrate were mixed at a ratio of 1:10 and reacted at 37° C. The absorbance of visible light at 405 nm was determined at the appropriate time intervals, and the enzymatic activity of SEAP was represented by the speed of the increasing absorbance at 405 nm.
The selection of telomerase inhibitors of the anthraquinone compounds provided in the present invention was performed by the H1299/PhTERT-driven SEAP system. SEAP is the communication gene in this drug selection model. The SEAP inhibition was shown as follows. The quantitative cellular medium obtained after the 24-hour drug-treatment and the identical inactivation was reacted with the quantitative SEAP substrate, and the absorbance at 405 nm was detected for 5 time intervals. Subsequently, the linear slope of absorbance to the measuring time was calculated, and the variance of absorbance at 405 nm per minute was represented and compared with the SEAP-producing result of drug-untreated H1299 cells. In addition, the influence of the cell-treated drug solution to the cellular proliferation and the drug toxicity to the cells were considered, and the cellular growth was evaluated by the MTT assay. The drug-treated cells were analyzed by the SEAP assay and the data analysis of MTT assay at the same time. Both results were compared so as to delete the influence of cell number or the activity to SEAP, and the dose-dependent phenomenon could be anticipated in the range of drug concentration designed by the laboratory.
In the preliminary selection, the highest concentration was 1000 μM, and 10-fold serial dilutions were done. Therefore, the final concentrations for treating cells were 1 μM, 10 μM and 100 μM, and the drug concentrations were repeated for 5 times. Since the chemically-synthetic drugs have colors thereon, the SEAP value of drug-treatment without cells was also determined to be the background value which was deducted while treating with the drugs. The candidate drug for inhibiting telomerase on the hTERT gene expression level was evaluated and anticipated.

Setting [3] is: NCI-H1299, H1299, compound concentration 1 μM, read-out: SEAP (Inhibition μM ± SD).
Where [4] appears, read: NCI-H1299, H1299, compound concentration 10 μM, read-out: SEAP (Inhibition μM ± SD).
Setting [5] is: NCI-H1299, H1299, compound concentration 100 μM, read-out: SEAP (Inhibition μM ± SD).
Where [6] appears, read: NCI-H1299, read-out: SEAP (Inhibition μM ± SD).

Turning to `O=C1c2ccc([N+](=O)[O-])cc2C(=O)c2cc([N+](=O)[O-])ccc21` [Compound 1, 2,7-dinitroanthraquinone], in data set [1], the viability at 24 h, 1 µM came out at 97 ± 15%; the viability at 24 h, 10 µM is 95 ± 8%; the viability at 24 h, 100 µM was 69 ± 10%. For the same compound, in data set [2] (setting [3]), the activity at 1 µM was 87 ± 13%. Also, in data set [2] (setting [4]), the activity at 10 µM came out at 85 ± 21%. The activity at 100 µM in data set [2] (setting [5]) turned out to be 62 ± 8%.
On to `Nc1ccc2c(c1)C(=O)c1cc(N)ccc1C2=O` [Compound 2, 2,7-Diaminoanthraquinone], for which, in data set [1], the viability at 24 h, 1 µM was 90 ± 17%; the viability at 24 h, 10 µM is 80 ± 16%; the viability at 24 h, 100 µM amounted to 65 ± 10%. Besides, the activity at 1 µM in data set [2] (setting [3]) amounted to 87 ± 10%. Besides, the activity at 10 µM in data set [2] (setting [4]) was found to be 75 ± 8%. Besides, the activity at 100 µM in data set [2] (setting [5]) was found to be 63 ± 12%.
As for `O=C(CCl)Nc1ccc2c(c1)C(=O)c1cc(NC(=O)CCl)ccc1C2=O` [Compound 3, 2,7-bis(chloroacetamido)anthraquinone], in data set [1], the viability at 24 h, 1 µM turned out to be 58 ± 44%; the viability at 24 h, 10 µM turned out to be 5 ± 3%; the viability at 24 h, 100 µM amounted to 1%. Besides, in data set [2] (setting [6]), the activity at 1 µM turned out to be 72 ± 3%, the activity at 10 µM worked out at 40 ± 1% and the activity at 100 µM came to 36 ± 1%.
Consider `CCN(CC)CC(=O)Nc1ccc2c(c1)C(=O)c1cc(NC(=O)CN(CC)CC)ccc1C2=O` [Compound 4, 2,7-Bis[2-(diethylamino)acetamido]anthraquinone], for which, in data set [1], the viability at 24 h, 1 µM was determined as 101 ± 8%; the viability at 24 h, 10 µM came out at 47 ± 7%; the viability at 24 h, 100 µM stood at 25 ± 3%. The activity at 1 µM in data set [2] (setting [3]) was 90 ± 3%. In data set [2] (setting [4]), the activity at 10 µM worked out at 61 ± 11%. Further, the activity at 100 µM in data set [2] (setting [5]) came out at 37 ± 10%.
With `CCCCNCC(=O)Nc1ccc2c(c1)C(=O)c1cc(NC(=O)CNCCCC)ccc1C2=O` [Compound 5, 2,7-Bis[2-(butylamino)acetamido]anthraquinone], in data set [1], the viability at 24 h, 1 µM is 91 ± 16%; the viability at 24 h, 10 µM was determined as 17 ± 9%; the viability at 24 h, 100 µM is 15 ± 11%. The activity at 1 µM in data set [2] (setting [3]) came to 77 ± 18%. Also, the activity at 10 µM in data set [2] (setting [4]) came to 26 ± 17%. Moreover, in data set [2] (setting [5]), the activity at 100 µM is 20 ± 13%.
On to `O=C(CN1CCCC1)Nc1ccc2c(c1)C(=O)c1cc(NC(=O)CN3CCCC3)ccc1C2=O` [Compound 6, 2,7-Bis[2-(pyrrolidino)acetamido]anthraquinone], for which, in data set [1], the viability at 24 h, 1 µM amounted to 99 ± 9%; the viability at 24 h, 10 µM turned out to be 52 ± 13%; the viability at 24 h, 100 µM is 23 ± 14%. The activity at 1 µM in data set [2] (setting [3]) was 88 ± 10%. Besides, the activity at 10 µM in data set [2] (setting [4]) was found to be 48 ± 13%. In addition, the activity at 100 µM in data set [2] (setting [5]) was determined as 30 ± 10%.
Turning to `O=C(CN1CCCCC1)Nc1ccc2c(c1)C(=O)c1cc(NC(=O)CN3CCCCC3)ccc1C2=O` [Compound 7, 2,7-Bis[2-(piperidino)acetamido]anthraquinone], in data set [1], the viability at 24 h, 1 µM is 50 ± 16%; the viability at 24 h, 10 µM stood at 37 ± 15%; the viability at 24 h, 100 µM came to 35 ± 11%. The activity at 1 µM in data set [2] (setting [3]) was 74 ± 19%. The activity at 10 µM in data set [2] (setting [4]) was 69 ± 20%. In addition, in data set [2] (setting [5]), the activity at 100 µM was determined as 63 ± 15%.
Take `CN(C)CC(=O)Nc1ccc2c(c1)C(=O)c1cc(NC(=O)CN(C)C)ccc1C2=O` [Compound 8, 2,7-Bis[2-(dimethylamino)acetamido]anthraquinone]: in data set [1], the viability at 24 h, 1 µM stood at 92 ± 13%; the viability at 24 h, 10 µM worked out at 55 ± 9%; the viability at 24 h, 100 µM is 15 ± 12%. In data set [2] (setting [6]), the activity at 1 µM is 87 ± 12%, the activity at 10 µM is 40 ± 20% and the activity at 100 µM is 21 ± 14%.
`CCCNCC(=O)Nc1ccc2c(c1)C(=O)c1cc(NC(=O)CNCCC)ccc1C2=O` [Compound 9, 2,7-Bis[2-(propylamino)acetamido]anthraquinone]: in data set [1], the viability at 24 h, 1 µM worked out at 89 ± 15%; the viability at 24 h, 10 µM is 54 ± 11%; the viability at 24 h, 100 µM came to 14 ± 10%. Further, the activity at 1 µM in data set [2] (setting [3]) worked out at 73 ± 17%. In addition, the activity at 10 µM in data set [2] (setting [4]) stood at 44 ± 16%. In addition, in data set [2] (setting [5]), the activity at 100 µM is 24 ± 10%.
With `CCNCC(=O)Nc1ccc2c(c1)C(=O)c1cc(NC(=O)CNCC)ccc1C2=O` [Compound 10, 2,7-Bis[2-(ethylamino)acetamido]anthraquinone], in data set [1], the viability at 24 h, 1 µM came out at 52 ± 11%; the viability at 24 h, 10 µM turned out to be 24 ± 5%; the viability at 24 h, 100 µM turned out to be 3 ± 4%. In addition, in data set [2] (setting [6]), the activity at 1 µM stood at 60 ± 10%, the activity at 10 µM was 35 ± 5% and the activity at 100 µM was determined as 34 ± 3%.
As to `CN1CCN(CC(=O)Nc2ccc3c(c2)C(=O)c2cc(NC(=O)CN4CCN(C)CC4)ccc2C3=O)CC1` [Compound 11, 2,7-Bis[2-(N-methylpiperazino)acetamido]anthraquinone], in data set [1], the viability at 24 h, 1 µM came to 90 ± 14%; the viability at 24 h, 10 µM is 71 ± 4%; the viability at 24 h, 100 µM was 37 ± 6%. The activity at 1 µM in data set [2] (setting [3]) was found to be 76 ± 21%. Besides, the activity at 10 µM in data set [2] (setting [4]) came out at 50 ± 11%. In addition, in data set [2] (setting [5]), the activity at 100 µM turned out to be 23 ± 9%.
For `O=C(CN1CCNCC1)Nc1ccc2c(c1)C(=O)c1cc(NC(=O)CN3CCNCC3)ccc1C2=O` [Compound 12, 2,7-Bis[2-(piperazino)acetamido]anthraquinone], in data set [1], the viability at 24 h, 1 µM is 88 ± 19%; the viability at 24 h, 10 µM was found to be 85 ± 13%; the viability at 24 h, 100 µM is 88 ± 11%. Further, the activity at 1 µM in data set [2] (setting [3]) was 89 ± 17%. The activity at 10 µM in data set [2] (setting [4]) turned out to be 72 ± 20%. Also, the activity at 100 µM in data set [2] (setting [5]) was found to be 60 ± 12%.
